From patent publication US11208412B2 (DAEGU-GYEONGBUK MEDICAL INNOVATION FOUNDATION, priority 2017, dated 2021) come the findings set out here.

Assay [1] has as its target T1, kinases of the scanMAX Kinase assay panel (Homo sapiens, UniProt Q9UL54).
T1 construct: purchased DiscoverX Co. (contract measurement) scanMAX Kinase assay panel
T1 sequence (Q9UL54 1-1235): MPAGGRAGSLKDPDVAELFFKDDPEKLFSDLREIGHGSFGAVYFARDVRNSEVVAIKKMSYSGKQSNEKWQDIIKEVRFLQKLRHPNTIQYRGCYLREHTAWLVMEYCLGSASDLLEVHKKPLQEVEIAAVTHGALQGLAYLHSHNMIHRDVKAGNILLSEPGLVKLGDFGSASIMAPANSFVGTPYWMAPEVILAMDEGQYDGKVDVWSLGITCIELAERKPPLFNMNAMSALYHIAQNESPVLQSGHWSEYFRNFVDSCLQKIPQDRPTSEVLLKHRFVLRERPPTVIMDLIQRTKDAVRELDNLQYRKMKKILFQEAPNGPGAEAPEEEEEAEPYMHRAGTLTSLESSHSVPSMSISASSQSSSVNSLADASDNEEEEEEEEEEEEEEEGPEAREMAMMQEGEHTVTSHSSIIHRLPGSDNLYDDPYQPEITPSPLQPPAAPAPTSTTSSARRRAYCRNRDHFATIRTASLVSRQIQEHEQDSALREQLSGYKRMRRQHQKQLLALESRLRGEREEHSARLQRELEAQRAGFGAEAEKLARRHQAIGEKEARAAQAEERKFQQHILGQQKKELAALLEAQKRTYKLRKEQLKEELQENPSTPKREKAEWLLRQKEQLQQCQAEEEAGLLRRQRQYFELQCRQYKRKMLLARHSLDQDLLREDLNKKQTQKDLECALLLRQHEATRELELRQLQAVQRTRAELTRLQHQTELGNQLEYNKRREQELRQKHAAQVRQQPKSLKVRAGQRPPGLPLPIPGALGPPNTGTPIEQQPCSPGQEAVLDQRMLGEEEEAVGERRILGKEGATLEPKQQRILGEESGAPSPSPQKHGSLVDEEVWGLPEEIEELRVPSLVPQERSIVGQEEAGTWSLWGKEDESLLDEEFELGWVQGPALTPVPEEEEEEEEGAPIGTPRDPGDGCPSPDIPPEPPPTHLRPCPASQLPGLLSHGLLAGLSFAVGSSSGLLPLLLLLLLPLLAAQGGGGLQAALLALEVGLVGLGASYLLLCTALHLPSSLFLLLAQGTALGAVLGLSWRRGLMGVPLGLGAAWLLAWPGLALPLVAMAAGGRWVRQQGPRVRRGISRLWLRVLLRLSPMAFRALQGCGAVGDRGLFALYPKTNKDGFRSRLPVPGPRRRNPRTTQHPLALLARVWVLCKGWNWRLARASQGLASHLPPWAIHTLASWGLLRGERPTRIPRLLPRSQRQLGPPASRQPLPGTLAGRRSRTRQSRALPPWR
Description: Kinase selectivity, DiscoverX scanMAX Kinase assay panel (% control). The note with it: kinase TAOK2; 1 uM in DMSO. In kind it is binding. In outline:
(§1)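 Read-out is % control, normalised so a positive-control compound sits at 0% and DMSO at 100%: (test − positive)/(negative − positive)×100. Each kinase received the compound at 1 uM in DMSO. A value below 35% counts as activity.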

In assay [2] the target is T2, kinases of the scanMAX Kinase assay panel (Homo sapiens, UniProt Q6XUX3).
T2 construct: purchased DiscoverX Co. (contract measurement) scanMAX Kinase assay panel
T2 sequence (Q6XUX3 1-929): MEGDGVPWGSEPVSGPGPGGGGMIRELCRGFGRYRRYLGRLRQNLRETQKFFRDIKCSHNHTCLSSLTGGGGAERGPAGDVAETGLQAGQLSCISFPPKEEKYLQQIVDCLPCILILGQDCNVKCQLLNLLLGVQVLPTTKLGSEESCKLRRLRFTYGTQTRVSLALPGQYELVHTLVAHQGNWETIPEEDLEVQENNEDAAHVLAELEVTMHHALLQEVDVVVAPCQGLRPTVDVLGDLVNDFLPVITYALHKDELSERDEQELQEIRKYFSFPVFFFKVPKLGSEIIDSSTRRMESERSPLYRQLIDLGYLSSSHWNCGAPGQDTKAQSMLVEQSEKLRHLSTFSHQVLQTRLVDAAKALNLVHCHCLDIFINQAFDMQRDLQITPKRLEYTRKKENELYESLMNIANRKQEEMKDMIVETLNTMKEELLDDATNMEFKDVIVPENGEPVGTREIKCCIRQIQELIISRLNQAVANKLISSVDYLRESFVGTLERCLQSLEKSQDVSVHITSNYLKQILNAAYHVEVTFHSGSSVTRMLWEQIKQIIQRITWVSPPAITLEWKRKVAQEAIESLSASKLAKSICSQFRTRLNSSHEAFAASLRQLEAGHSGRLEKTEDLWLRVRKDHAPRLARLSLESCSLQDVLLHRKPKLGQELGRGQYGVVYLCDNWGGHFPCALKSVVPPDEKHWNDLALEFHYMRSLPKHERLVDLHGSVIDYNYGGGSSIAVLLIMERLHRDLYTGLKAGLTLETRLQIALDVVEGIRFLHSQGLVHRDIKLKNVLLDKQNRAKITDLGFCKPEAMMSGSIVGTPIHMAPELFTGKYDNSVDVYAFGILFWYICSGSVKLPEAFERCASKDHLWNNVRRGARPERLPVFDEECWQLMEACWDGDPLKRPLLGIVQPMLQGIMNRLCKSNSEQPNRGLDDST
The assay is described as above. Conditions: kinase RIPK5; 1 uM in DMSO. The assay is classed as binding. In outline:
as §1

As for `CNc1nc(Nc2ccc(C(=O)N3CCOCC3)cc2OC)nc2[nH]cc(C#N)c12` [Example 1, 2-((2-methoxy-4-(morpholine-4-carbonyl)phenyl)amino)-4-(methylamino)-7H-pyrrolo[2,3-d]pyrimidine-5-carbonitrile], the remaining binding at 1 µM was 78% in assay [1] and 10% in assay [2].
As for `CC1(Nc2nc(Nc3cnn([C@H]4CCN(C5COC5)C[C@@H]4F)c3Cl)nc3[nH]cc(C#N)c23)CC1` [Example 52, 2-((5-chloro-1-((3S,4S)-3-fluoro-1-(oxetane-3-yl)piperidine-4-yl)-1H-pyrazole-4-yl)amino)((1-methylcyclopropyl)amino)-7H-pyrrolo[2,3-d]pyrimidine-5-carbonitrile], the figures for the remaining binding at 1 µM in assay [1] and in assay [2] were 40% and 3.7%, respectively.
For `CCNc1nc(Nc2ccc(C(=O)N3CCC(N4CCOCC4)CC3)cc2OC)nc2[nH]cc(C(F)(F)F)c12` [Example 104, (4-((4-(ethylamino)-5-(trifluoromethyl)-7H-pyrrolo[2,3-d]pyrimidine-2-yl)amino)-3-methoxyphenyl)(4-morpholinopiperidine-1-yl)methanone] the same measures were 87% and 18%.
